Measurements published in US6310095A, “Inhibitors of protein isoprenyl transferases” (University of Pittsburgh, priority 1998, dated 2001).
Counter-ions that a name gives are not always drawn.

Target: T1, protein farnesyltransferase (Rattus norvegicus, UniProt Q02293+Q04631)
T1 construct: Rat brain protein farnesyltransferase activity is measured; from tissue; host or cells: rat brain; purified according to Reiss et al., Cell 62:81-88 (1990), steps one through three
Assay: in vitro inhibition of protein farnesyltransferase (scintillation proximity assay, biotin-K Ras B fragment)
Type: biochemical
Settings: at 1 × 10^-5 M
How it was run: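 Rat brain enzyme, purified through three steps, in a scintillation proximity assay kit with biotin-K Ras B fragment substrate at 0.1 mM final. Value is % inhibition of farnesylation.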

Question: `CSCC[C@H](NC(=O)c1ccc(CNCC(C)(C)CN(C)C)cc1-c1ccccc1)C(=O)O` [Example 639] was tested. Which inhibition at 10 µM did it give?
Answer: The inhibition at 10 µM was 44%.

Question: With `CSCC[C@H](NC(=O)c1ccc(CNc2ccccc2N(C)C)cc1-c1ccccc1)C(=O)O` [Example 672] as the molecule, how does the inhibition at 10 µM read?
Answer: Its inhibition at 10 µM is 48%.

Question: For `Cc1ccccc1-c1cc(CN(Cc2ccccc2)c2cccnc2)ccc1C(=O)N[C@@H](CCS(C)(=O)=O)C(=O)O` [Example 759, (2S)-2-N-[4-(N-benzyl-N-3-pyridylaminomethyl)-2-(2-methylphenyl)benzoyl]amino-4-methanesulfonylbutanoic acid], which inhibition at 10 µM is on record?
Answer: The inhibition at 10 µM was 49%.

Question: For `COc1cc(Cl)ccc1C(=O)Nc1ccc(C(=O)N[C@@H](CCSC)C(=O)O)c(-c2ccccc2)c1` [Example 753], which inhibition at 10 µM is on record?
Answer: The inhibition at 10 µM was 55%.

Question: With `CSCC[C@H](NC(=O)c1ccc(CNc2cccc(C)c2)cc1-c1ccccc1)C(=O)O` [Example 674] as the molecule, how does the inhibition at 10 µM read?
Answer: Its inhibition at 10 µM is 40%.

Question: With `CCn1cc(NCc2ccc(C(=O)N[C@@H](CCSC)C(=O)O)c(-c3ccccc3)c2)c(=O)n1CC` [Example 364] as the molecule, how does the inhibition at 10 µM read?
Answer: The inhibition at 10 µM was 69%.

Same assay, conditions: at 1 × 10^-6 M

Question: Which “% inhibition of farnesyltransferase” value does the source give for `CSCC[C@H](NC(=O)c1ccc(COC2(Cc3ccccc3)CCN(C(=O)OC(C)(C)C)CC2)cc1-c1ccccc1C)C(=O)[O-].[Li+]` [Example 809] here?
Answer: The value was 78%.

Question: With `CSCC[C@H](NC(=O)c1ccc(COCCC23CC4CC(CC(C4)C2)C3)cc1-c1ccccc1C)C(=O)O` [Example 404] as the molecule, how does the “% inhibition of farnesyltransferase” value read?
Answer: The value was 98%.

Question: For `CSCC[C@H](NC(=O)c1ccc(/C=C/CC2CCCCC2)cc1-c1ccccc1C)C(=O)O` [Example 471], which “% inhibition of farnesyltransferase” value is on record?
Answer: Its value is 94%.

Question: For `CSCC[C@H](NC(=O)c1ccc(CNC(CC2CCCCC2)C(O)C(O)CC(C)C)cc1-c1ccccc1C)C(=O)O` (stereo partly drawn) [Example 529], which “% inhibition of farnesyltransferase” value is on record?
Answer: Its value is 99%.

Question: Which “% inhibition of farnesyltransferase” value does the source give for `CSCC[C@H](NC(=O)c1ccc(CCCCC2CCCCC2)cc1-c1ccccc1C)C(=O)O` [Example 478] here?
Answer: Its value is 98%.

Question: Which “% inhibition of farnesyltransferase” value does the source give for `CSCC[C@H](NC(=O)c1ccc(OCCOC2CCCCC2)cc1-c1ccccc1C)C(=O)[O-].[Li+]` [Example 565] here?
Answer: The value was 94%.

Question: `CSCC[C@H](NC(=O)c1ccc(COCCCc2ccccc2)cc1-c1ccccc1C)C(=O)[O-].[Li+]` [Example 595] was tested. Which “% inhibition of farnesyltransferase” value did it give?
Answer: Its value is 97%.

Same assay, conditions: at 1 × 10^-6 M; read-out: % inhibition of farnesyltransferase

Question: `CSCC[C@H](NC(=O)c1ccc(CN[C@@H](/C=C\CC(C)C)CC2CCCCC2)cc1-c1ccccc1)C(=O)O` [Example 665] was tested. Which inhibition at 1 µM did it give?
Answer: Its inhibition at 1 µM is 55%.

Question: For `CSCC[C@H](NC(=O)c1ccc(CN(Cc2ccoc2)C(C)C)cc1-c1ccccc1C)C(=O)O` [Example 832, N-[4-N-(furan-3-ylmethyl)-N-isopropylainomethyl-2-(2-methylphenyl)benzoyl]methionine lithium salt], which inhibition at 1 µM is on record?
Answer: Its inhibition at 1 µM is 80%.

Question: Which inhibition at 1 µM does the source give for `CSCC[C@H](NC(=O)c1ccc(CN(CCO)Cc2ccccc2)cc1-c1ccccc1)C(=O)O` [Example 515, N-[4-N-(2-hydroxyethyl)-N-benzylaminomethyl-2-phenylbenzoyl]methionine lithium salt] here?
Answer: The inhibition at 1 µM was 72%.

Question: With `CSCC[C@H](NC(=O)c1ccc(CN[C@H](CO)CC2CCCCC2)cc1-c1ccccc1C)C(=O)O` [Example 617, N-[4-(3-cyclohexylpropan-1-ol-2-ylaminomethyl)-2-(2-methylphenyl)benzoyl]methionine] as the molecule, how does the inhibition at 1 µM read?
Answer: The inhibition at 1 µM was 99%.

Question: Which inhibition at 1 µM does the source give for `COC(=O)c1cscc1NCc1ccc(C(=O)N[C@@H](CCSC)C(=O)O)c(-c2ccccc2C)c1` [Example 724] here?
Answer: Its inhibition at 1 µM is 87%.

Question: How did the inhibition at 1 µM turn out when `CSCC[C@H](NC(=O)c1ccc(CN(Cc2ccc(C(F)(F)F)cc2)c2ccccc2)cc1-c1ccccc1C)C(=O)O` [Example 782, N-[4-N-(N-phenyl-N-(4-trifluoromethylbenzyl)aminomethyl)-2-(2-methylphenyl)-benzoyl]methionine lithium salt] was run?
Answer: The inhibition at 1 µM was 96%.

Question: For `CSCC[C@H](NC(=O)c1ccc(CN(C(=O)OC(C)(C)C)C(CC2CCCCC2)CC2CCCCC2)cc1-c1ccccc1C)C(=O)O` [Example 886, N-[4-N-t-Butyloxycarbonyl-N-(1,3-dicyclohexylpropan-2-yl)aminomethyl-2-(2-methylphenyl)-benzoyl]methionine lithium salt], which inhibition at 1 µM is on record?
Answer: Its inhibition at 1 µM is 35%.

Same assay, conditions: at 1 × 10^-7 M

Question: How did the “% inhibition of farnesyltransferase” value turn out when `CSCC[C@H](NC(=O)c1ccc(COCCCCC2CCCCC2)cc1-c1ccccc1C)C(=O)O` [Example 600] was run?
Answer: Its value is 93%.

Question: How did the “% inhibition of farnesyltransferase” value turn out when `CSCC[C@H](NC(=O)c1ccc(COc2ccc3ccccc3c2)cc1-c1ccccc1C)C(=O)O` [Example 573] was run?
Answer: The value was 72%.

Question: How did the “% inhibition of farnesyltransferase” value turn out when `CSCC[C@H](NC(=O)c1ccc(COCc2ccc(-c3ccc(C(F)(F)F)cc3)o2)cc1-c1ccccc1C)C(=O)[O-].[Li+]` [Example 445] was run?
Answer: Its value is 94%.

Question: `CSCC[C@H](NC(=O)c1ccc(CCc2cccc(Oc3ccccc3)c2)cc1-c1ccccc1C)C(=O)[O-].[Li+]` [Example 459] was tested. Which “% inhibition of farnesyltransferase” value did it give?
Answer: Its value is 92%.

Question: How did the “% inhibition of farnesyltransferase” value turn out when `CSCC[C@H](NC(=O)c1ccc(COC2CCC(NC(=O)OC(C)(C)C)CC2)cc1-c1ccccc1C)C(=O)[O-].[Li+]` (stereo partly drawn) [Example 817] was run?
Answer: Its value is 60%.

Question: With `CSCC[C@H](NC(=O)c1ccc(COCc2ccc(-c3ccc(Cl)cc3)o2)cc1-c1ccccc1C)C(=O)O` [Example 443] as the molecule, how does the “% inhibition of farnesyltransferase” value read?
Answer: Its value is 97%.

Same assay, conditions: at 1 × 10^-7 M; read-out: % inhibition of farnesyltransferase

Question: How did the inhibition at 0.1 µM turn out when `CSCC[C@H](NC(=O)c1ccc(CN(CCC23CC4CC(CC(C4)C2)C3)c2ccccc2)cc1-c1ccccc1C)C(=O)O` [Example 511] was run?
Answer: The inhibition at 0.1 µM was 82%.

Question: How did the inhibition at 0.1 µM turn out when `CCSC[C@H](CC1CCCCC1)N(Cc1ccc(C(=O)N[C@@H](CCSC)C(=O)O)c(-c2ccccc2C)c1)C(=O)OC(C)(C)C` [Example 948, N-[4-N-t-Butyloxycarbonyl-N-(3-cyclohexyl-1-ethylthiopropan-2-yl)aminomethyl-2-(2-methylphenyl)benzoyl]methionine] was run?
Answer: Its inhibition at 0.1 µM is 75%.

Question: `CSCC[C@H](NC(=O)c1ccc(CN[C@H](CSc2ccccc2)CC2CCCCC2)cc1-c1ccccc1C)C(=O)O` [Example 623, N-[4-(3-cyclohexyl-1-phenylthiopropan-2-ylaminomethyl)-2-(2-methylphenyl)benzoyl]methionine Lithium Salt] was tested. Which inhibition at 0.1 µM did it give?
Answer: Its inhibition at 0.1 µM is 96%.

Question: `CSCC[C@H](NC(=O)c1ccc(CNCCc2c[nH]c3ccccc23)cc1-c1ccccc1C)C(=O)O` [Example 519, N-[4-N-(2-indol-3-ylethyl)aminomethyl-2-(2-methylphenyl)benzoyl]methionine lithium salt] was tested. Which inhibition at 0.1 µM did it give?
Answer: The inhibition at 0.1 µM was 89%.

Question: Which inhibition at 0.1 µM does the source give for `CSCC[C@H](NC(=O)c1ccc(CN(c2ccccc2)S(=O)(=O)c2ccc(C)cc2)cc1-c1ccccc1C)C(=O)O` [Example 770, N-[4-N-(N-phenyl-N-toluenesulfonylaminomethyl)-2-(2-methylphenyl)benzoyl]methionine lithium salt] here?
Answer: Its inhibition at 0.1 µM is 91%.

Question: How did the inhibition at 0.1 µM turn out when `CSCC[C@H](NC(=O)c1ccc(CN[C@H](CSC(C)(C)C)CC2CCCCC2)cc1-c1ccccc1C)C(=O)O` [Example 622, N-[4-(3-cyclohexyl-1-t-butylthiopropan-2-ylaminomethyl)-2-(2-methylphenyl)benzoyl]methionine Lithium Salt] was run?
Answer: The inhibition at 0.1 µM was 95%.

Question: With `COc1ccccc1N(Cc1ccccc1)Cc1ccc(C(=O)N[C@@H](CCSC)C(=O)O)c(-c2ccccc2C)c1` [Example 839, N-[4-(N-benzyl-N-(2-methoxyphenyl)aniinomethyl)-2-(2-methylphenyl)benzoyl]methionine lithium salt] as the molecule, how does the inhibition at 0.1 µM read?
Answer: The inhibition at 0.1 µM was 63%.

Question: With `CCSC[C@H](CC(C)C)N(C)Cc1ccc(C(=O)N[C@@H](CCSC)C(=O)O)c(-c2ccccc2C)c1` [Example 906, N-[4-(N-(1-ethylthio-4-methylpentan-2-yl)-N-methylaminomethyl)-2-(2-methylphenyl)benzoyl]-methionine] as the molecule, how does the inhibition at 0.1 µM read?
Answer: The inhibition at 0.1 µM was 88%.

Same assay, conditions: at 1 × 10^-8 M

Question: For `CSCC[C@H](NC(=O)c1ccc(COCc2cccc(C(C)C)c2)cc1-c1ccccc1C)C(=O)[O-].[Li+]` [Example 939], which “% inhibition of farnesyltransferase” value is on record?
Answer: Its value is 72%.

Question: For `CSCC[C@H](NC(=O)c1ccc(COCc2ccc(-c3ccc(N(C)C)cc3)o2)cc1-c1ccccc1C)C(=O)O` [Example 821], which “% inhibition of farnesyltransferase” value is on record?
Answer: Its value is 75%.

Same assay, conditions: at 1 × 10^-8 M; read-out: % inhibition of farnesyltransferase

Question: With `CSCC[C@H](NC(=O)c1ccc(CN(C(C)=O)C(CC2CCCCC2)CC2CCCCC2)cc1-c1ccccc1C)C(=O)O` [Example 909, N-[4-(N-acetyl-N-(1,3-Dicyclohexylpropan-2-yl)aminomethyl)-2-(2-methylphenyl)-benzoyl]methionine] as the molecule, how does the inhibition at 0.01 µM read?
Answer: The inhibition at 0.01 µM was 79%.

Question: With `CSCC[C@H](NC(=O)c1ccc(CN(Cc2ccccc2)c2cnccn2)cc1-c1ccccc1C)C(=O)O` [Example 517, N-[4-N-benzyl-N-pyrazin-2-ylaminomethyl-2-(2-methylphenyl)benzoyl]methionine lithium salt] as the molecule, how does the inhibition at 0.01 µM read?
Answer: Its inhibition at 0.01 µM is 92%.

Question: For `CC[C@H](CC1CCCCC1)NCc1ccc(C(=O)N[C@@H](CCSC)C(=O)O)c(-c2ccccc2C)c1` [Example 614, N-[4-(4-cyclohexylbutan-3-ylaminomethyl)-2-(2-methylphenyl)benzoyl]methionine Lithium Salt], which inhibition at 0.01 µM is on record?
Answer: Its inhibition at 0.01 µM is 92%.

Question: Which inhibition at 0.01 µM does the source give for `CSCC[C@H](NC(=O)c1ccc(CN(Cc2ccc3c(c2)OCO3)c2cnccn2)cc1-c1ccccc1C)C(=O)O` [Example 838, N-[4-N-(1,3-benzodiox-5-yl)-N-pyridizin-2-ylaminomethyl-2-(2-methylphenyl)benzoyl]methionine lithium salt] here?
Answer: The inhibition at 0.01 µM was 92%.

Same assay, conditions: read-out: % inhibition of farnesyltransferase

Question: `CSCC[C@H](NC(=O)c1ccc(CN(Cc2ccccc2)c2ccc(SC)cc2)cc1-c1ccccc1C)C(=O)O` [Example 852, N-[4-(N-benzyl-N-(4-methylthiophenyl)aminomethyl)-2-(2-methylphenyl)benzoyl]methionine lithium salt] was tested. Which inhibition at 0.01 µM did it give?
Answer: Its inhibition at 0.01 µM is 79%.

Question: How did the inhibition at 1 µM turn out when `CSCC[C@H](NC(=O)c1ccc(NC(=O)C2=C(C(F)(F)F)C=CNC2)cc1-c1ccccc1)C(=O)O` [Example 283, [4-(1H-4-trifluoromethyl-1,2-dihydropyrid-3-ylcarbonylamino)-2-phenylbenzoyl]methionine sodium salt] was run?
Answer: The inhibition at 1 µM was 98%.
